Publication PMC9612231, “Antileishmanial Anthracene Endoperoxides: Efficacy In Vitro, Mechanisms and Structure-Activity Relationships” (Molecules, 2022)

What was measured:
LtP = experiment: Cellular oxygen consumption of LtP (OxoPlates); assay type: cell-based, Leishmania tarentolae; settings: 200 µM compound, 140 × 10^6 cells/mL
Source text: (§1) The experimental data so far indicate that in more complex EP not only the endoperoxyl group contributes to its pharmacological actions. Therefore, mitochondria present in the parasites but also in the host cells could be either a trigger for activating pharmacological actions of these compounds or a target of EP-derived radicals generated at other sites in the cell. In a subsequent experiment, we tested the influence of AcEP and non-endoperoxidic analogs (Ac) on the mitochondrial oxygen consumption in LtP and J774 macrophages (Figure 9).
(§2) Oxygen consumption rates of LtP in complete BHI culture medium and J774 in PBS-gluc treated with AcEPs were measured using round-bottomed OxoPlates (OP96U, Precision Sensing GmbH, Regensburg, Germany). […] Then, the fluorescence of both calibration media was measured at a microplate reader (Perkin Elmer EnSpire, Rodgau, Germany) in a dual kinetic mode, using an excitation wavelength of 540 nm for both dyes and emission wavelengths of 650 nm for the indicator dye and 590 nm for the reference dye. The ratio of both fluorescence intensities (IR) was calculated for each well and averaged giving the two calibration constants k0 (oxygen-free) or k100 (air-saturated). […] Both fluorescence intensities of each well were determined in 5 min intervals over up to 40 min. Each compound was measured in quadruplicates. […]

J774 macrophages = experiment: Cellular oxygen consumption of J774 cells (OxoPlates); assay type: cell-based, murine; settings: 200 µM compound, 2 × 10^6 cells/mL
Source text: as §1, §2

Row | Structure (SMILES) | Inhibition of mitochondrial oxygen consumption in LtP (LtP) | Inhibition of mitochondrial oxygen consumption in J774 macrophages (J774 macrophages)
1 | CC(C)(C)c1ccc2c(-c3cccnc3)c3ccccc3c(-c3cccnc3)c2c1 [mPyBuAc] | even stronger inhibition | –
2 | CC(C)(C)c1ccc2c(c1)C1(c3cccnc3)OOC2(c2cccnc2)c2ccccc21 (stereo not drawn) [mPyBuAcEP] | interfered strongly | more moderate
